Experimental data from US20170196859A1, “PHARMACEUTICAL COMPOSITION COMPRISING PYRAZINE CARBOXAMIDE COMPOUND AS ACTIVE INGREDIENT” (Astellas Pharma Inc., priority 2014, published 2017).

Tests used:
[1] = tested on: human acute myeloid leukemia cell line KG-1 cells; test: Proliferation inhibition, KG-1 cells (CellTiter-Glo); format: cell-based; details: KG-1, 72 h, 3 days culture
Method: KG-1 is a cell line originated from human acute myeloid leukemia and the BTK expression has been confirmed (J. Immunol. 1994; 152(2):557-565). The human acute myeloid leukemia cell line KG-1 cells (American Type Culture Collection, CCL-246) cultured in RPMI1640 medium (Sigma) containing 10% bovine serum were seeded into 96 well plates. On the next day, DMSO solutions of the test compound B at final concentrations from 1 nM to 10 μM or only DMSO (DMSO group) were added thereto to culture the cells at 37° C. in 5% CO2 for 3 days. Thereafter, the cell number was measured using a cell counting reagent (CellTiter-Glo (registered trademark) Luminescent Cell Viability Assay (Promega)). The cell proliferation inhibition rate was calculated as the measured value in the DMSO group set as 0% inhibition and the measured value in the well only with the medium on which the cells have not been seeded set as 100% inhibition.

[2] = tested on: OCI-Ly10 subcutaneous xenograft; test: Anti-tumor evaluation in OCI-Ly10 subcutaneous xenograft mouse model; format: in vivo; details: for tumor volume after 14 days: control 188 to 520 mm^3
Method: The human diffuse large B-cell lymphoma cell line OCI-Ly10 cells were subcutaneously implanted to a dorsal part of an immunodeficient mouse (NOD.CB 17-Prkdc scid/J, male, 4-week-old (Charles River Laboratories Japan, Inc.)) to prepare an OCI-Ly10 subcutaneous xenograft mouse model. To mice which were divided based on the tumor volumes, 0.5% methylcellulose (control group: 10 mL/kg/day, QD, po (n=4)) or the test compound B (test compound B-administered group: 30 or 100 mg/kg/day in 0.5% methylcellulose suspension, QD, po (n=4)) were administered. The change in the tumor volume was evaluated over time.

[3] = tested on: human anaplastic large cell lymphoma cell line KARPAS-299 cells; test: Proliferation inhibition, KARPAS-299 cells (CellTiter-Glo); format: cell-based; details: KARPAS-299, 72 h, 3 days culture
Method: KARPAS-299 is a cell line originated from human anaplastic large cell lymphoma and the activation of JAK 3 has been confirmed (Oncogene. 2002; 21:1038-1047). The human anaplastic large cell lymphoma cell line KARPAS-299 cells (DSMZ, ACC31) cultured in RPMI1640 medium (Sigma) containing a 10% bovine serum were seeded into 96 well plates. On the same day, DMSO solution of the test compound B at a final concentrations from 1 nM to 10 μM or only DMSO (DMSO group) were added thereto to culture the cells at 37° C. in 5% CO2 for 3 days. Thereafter, the cell number was measured using a cell counting reagent (CellTiter-Glo (registered trademark) Luminescent Cell Viability Assay (Promega)). The cell proliferation inhibition rate was calculated as the measured value in the DMSO group set as 0% inhibition and the measured value in the well only with the medium on which the cells have not been seeded set as 100% inhibition.

[4] = tested on: human lymphoblastic leukemia cell line MOLT-4 cells; test: Proliferation inhibition, MOLT-4 cells (CellTiter-Glo); format: cell-based; details: MOLT-4, 96 h, 4 days culture
Method: MOLT-4 is a cell lines originated from human lymphoblastic leukemia and the ITK expression has been confirmed (Mol. Pharmacol. 2012; 82:938-947). The human lymphoblastic leukemia cell line MOLT-4 cells (European Collection of Cell Cultures, 85011413) cultured in RPMI1640 medium (Sigma) containing 10% bovine serum were inoculated into 96 well plates. On the same day, DMSO solutions of the test compound B at final concentrations from 1 nM to 10 μM or only DMSO (DMSO group) were added thereto to culture the cells at 37° C. in 5% CO2 for 4 days. Thereafter, the cell number was measured using a cell counting reagent (CellTiter-Glo (registered trademark) Luminescent Cell Viability Assay (Promega)). The cell proliferation inhibition rate was calculated as the measured value in the DMSO group set as 0% inhibition and the measured value in the well only with the medium on which the cells have not been seeded set as 100% inhibition.

In the case of C=CC(=O)N1CC[C@@H](Oc2nc(Nc3ccc(N4CCC(N5CCN(C)CC5)CC4)cc3)c(C(N)=O)nc2CC)C1 [test compound B, 5-{[(3R)-1-acryloylpyrrolidin-3-yl]oxy}-6-ethyl-3-({4-[4-(4-methylpiperazin-1-yl)piperidin-1-yl]phenyl}amino)pyrazine-2-carboxamide monomethanesulfonate], the IC50 [1] is reported as 38 nM, the “tumor volume after 14 days” value ([2]; 30 mg/kg/day QD po, 190 mm^3 at start of administration) is reported as 50 mm^3 and the “tumor volume after 14 days” value ([2]; 100 mg/kg/day QD po, 184 mm^3 at start of administration) is reported as 22 mm^3. For the same molecule, the “antitumor activity in OCI-Ly10 xenograft mouse model” value ([2]; summary statement, 30 and 100 mg/kg/day) was “remarkable antitumor activity with regression in a dose-dependent manner”, the IC50 [3] was 250 nM and the IC50 [4] was 410 nM.
